According to patent US8486990B2, “SirT inhibitors that bind to NAD” (Elixir Pharmaceuticals, Inc., priority 2003, dated 2013):
“Also recorded” adds a separate entry of the source.

Key:
Assay type in all cases: cell-based
yeast sir2 = biological target: T1, yeast sir2 (Saccharomyces cerevisiae, UniProt P06700); assay: yeast silencing assay (strain SL8c, URA at the telomere, 5FOA growth); conditions: SD+0.1% 5FOA, 30° C., 18-24 hrs
T1 construct: endogenous in cells; host or cells: yeast strain SL8c (URA at the telomere)
Method: Strain SL8c (URA at the telomere) was used for yeast based assay to screen compounds. Cells were grown in -URA media to select de-silenced cells. The next day cells were diluted 1:20 into fresh YPD with 2% glucose then grow for 5 hrs. Cells were then diluted OD=0.01 in both SD and SD+0.1% 5FOA media. The compounds were then serially diluted into 10 ul of SD or SD+0.1% 5FOA medium. 140 ul of cells were pipetted into a 96 well plate and grown at 30° C. for 18-24 hrs.

[1] = test system: acetylated p53 (at lysine 382) in NCI-H460 cells; assay: p53 acetylation (lysine 382) in etoposide-treated NCI-H460 cells, Western blot; conditions: for acetylation of p53 (lysine 382) by enantiomers: 6 hours, 20 micromolar etoposide, immunoprecipitation of p53
HeLa cell = assay: HeLa apoptosis assay (Cell Death Detection ELISA plus kit)
Method: The following exemplary compounds were evaluated for their effect on a HeLa cell apoptosis assay using the Cell Death Detection ELISA plus kit from Roche Applied Science.

[2] = test system: acetylated lysine 382 of p53 in MCF7 cells; assay: p53 acetylation (lysine 382) in etoposide-treated MCF7 cells; conditions: MCF7, 20 micromolar etoposide, 6 hours
[3] = test system: acetylated lysine 382 of p53 in U20S cells; assay: p53 acetylation (lysine 382) in etoposide-treated U20S cells; conditions: 20 micromolar etoposide, 6 hours
NCI-H460 cells [4] = assay: thymidine incorporation with etoposide and compound (cytostar plates); conditions: NCI-H460, 1 micromolar compound, added concurrent to, prior to, and after etoposide
Method: Thymidine incorporation was measured at 24 hours intervals.

NCI-H460 cells [5] = assay: cell survival after DNA damage with etoposide; conditions: NCI-H460, varying concentrations of etoposide
Description: NCI-H460 cells were damaged with varying concentrations of etoposide in the presence or absence of SIRT1 inhibitors.

GFP-hSIRT2 isoform 1 = biological target: T2, GFP-hSIRT2 isoform 1 (Homo sapiens, UniProt Q8IXJ6); assay: acetylated tubulin staining in HeLa cells transfected with GFP-hSIRT2; conditions: 1 μM TSA, 50 μM compound
T2 sequence (Q8IXJ6 1-389): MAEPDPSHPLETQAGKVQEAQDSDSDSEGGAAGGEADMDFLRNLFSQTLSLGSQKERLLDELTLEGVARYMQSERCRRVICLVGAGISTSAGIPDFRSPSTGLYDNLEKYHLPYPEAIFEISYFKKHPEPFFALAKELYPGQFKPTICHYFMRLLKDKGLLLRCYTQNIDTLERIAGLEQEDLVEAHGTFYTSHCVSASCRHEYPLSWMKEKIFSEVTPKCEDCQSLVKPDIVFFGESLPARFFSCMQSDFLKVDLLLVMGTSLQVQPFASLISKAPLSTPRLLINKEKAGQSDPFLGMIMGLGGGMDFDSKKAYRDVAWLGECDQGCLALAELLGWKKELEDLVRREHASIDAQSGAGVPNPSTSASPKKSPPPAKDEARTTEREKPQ
Description: HeLa cells were transfected with GFP-hSIRT2 isoform 1 (green). […] The next morning cells were fixed, permeabilized, and stained for acetylated tubulin (red).

p27 in HEK293 cells = assay: p27 protein immunoblot in serum starved HEK293 cells; conditions: HEK293, serum starved 24 hrs

T1 sequence (P06700 whole entry): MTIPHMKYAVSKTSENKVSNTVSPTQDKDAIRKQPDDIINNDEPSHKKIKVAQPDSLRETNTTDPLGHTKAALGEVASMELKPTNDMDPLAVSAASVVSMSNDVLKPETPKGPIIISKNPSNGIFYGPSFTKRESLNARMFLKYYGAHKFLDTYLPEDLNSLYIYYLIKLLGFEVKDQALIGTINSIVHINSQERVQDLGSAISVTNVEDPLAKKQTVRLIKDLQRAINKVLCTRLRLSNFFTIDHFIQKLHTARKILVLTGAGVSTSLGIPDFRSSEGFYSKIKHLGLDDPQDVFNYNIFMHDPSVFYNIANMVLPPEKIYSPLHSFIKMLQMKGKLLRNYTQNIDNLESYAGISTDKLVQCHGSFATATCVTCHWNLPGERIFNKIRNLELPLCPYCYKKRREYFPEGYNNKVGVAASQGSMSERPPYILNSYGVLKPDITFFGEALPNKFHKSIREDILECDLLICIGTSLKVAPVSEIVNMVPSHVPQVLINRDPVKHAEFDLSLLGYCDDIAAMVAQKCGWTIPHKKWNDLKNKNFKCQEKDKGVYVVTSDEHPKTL

SMILES	effect on yeast cell growth / silencing (yeast sir2)	acetylation of p53 (lysine 382) by enantiomers [1]	average (HeLa apoptosis, Cell Death Detection ELISA) (HeLa cell; dose 0.5 (unit not given))	average (HeLa apoptosis, Cell Death Detection ELISA) (HeLa cell; dose 2.5 (unit not given))	average (HeLa apoptosis, Cell Death Detection ELISA) (HeLa cell; dose 10 (unit not given))	average (HeLa apoptosis, Cell Death Detection ELISA) (HeLa cell; dose 25 (unit not given))	inhibition of SIRT1 / P53 acetylation [2]	inhibition of SIRT1 / P53 acetylation [3]	synergy with etoposide on growth characteristics (thymidine incorporation) (NCI-H460 cells [4])	p53 function measured as cell survival after DNA damage (NCI-H460 cells [5])	p53 acetylation (at lysine 382) after etoposide treatment ([1]; 20 uM etoposide, 1 uM and 10 uM equally effective, relative to DMSO)	tubulin acetylation in cells expressing SIRT2 (GFP-hSIRT2 isoform 1)	serum starvation-mediated upregulation of p27 (p27 in HEK293 cells)
NC(=O)C1CCCc2c1[nH]c1ccc(Cl)cc21 (single isomer, unassigned) [8(+), 6-Chloro-2,3,4,9-tetrahydro-1H-carbazole-1-carboxylic acid amide]	no effect on cell growth	does not lead to increased acetylation of p53	–	–	–	–	–	–	–	–	–	–	–
NC(=O)C1CCCc2c1[nH]c1ccc(Cl)cc21 (single isomer, unassigned) [8(−), 6-Chloro-2,3,4,9-tetrahydro-1H-carbazole-1-carboxylic acid amide]	preferentially inhibits yeast sir2 relative to enantiomer 8(+); also recorded: inhibits SIRT1 and allows for expression of URA3 which blocks growth in the presence of 5-fluorouracil	significant increase in acetylation and stabilization of p53 protein	–	–	–	–	–	–	–	–	–	–	–
NC(=O)C1CCCc2c1[nH]c1ccccc21 (centres unmarked) [Compound 5, 2,3,4,9-Tetrahydro-1H-carbazole-1-carboxylic acid amide]	–	–	1.00	0.97	1.07	0.91	–	–	–	–	–	–	–
NC(=O)C1CCCc2c1[nH]c1ccc(Cl)cc21 (centres unmarked) [Compound 8, 6-Chloro-2,3,4,9-tetrahydro-1H-carbazole-1-carboxylic acid amide]	–	–	1.23	1.85	2.11	2.27	competent to inhibit SIRT1 in a variety of cell lines with similar effects on P53 acetylation	competent to inhibit SIRT1 in a variety of cell lines with similar effects on P53 acetylation	no synergy between etoposide and compound 8	did not modulate p53 function significantly	increase p53 acetylation significantly relative to DMSO alone	the tubulin is more highly acetylated indicating that the effect of SIRT2 was blocked	abrogation of serum starvation-mediated upregulation of the cell cycle inhibitor p27
Oc1ccc(/C=C/c2cc(O)cc(O)c2)cc1 [Resveratol, reference compound]	–	–	0.83	0.84	1.01	0.56	–	–	–	–	–	–	–
